Reference: US20040198809A1 (priority 2001, published 2004)

Experiment: pharmacological and clinical studies (summary statements)
Format: in vivo
Settings: presence of R-citalopram
Text: This may be shown in functional in-vivo pharmacological models and studies of 5-HT-reuptake effect and or in behaviour models, for example depression models.

## CN(C)CCC[C@]1(c2ccc(F)cc2)OCc2cc(C#N)ccc21 [R-citalopram]
  impact on the effect of escitalopram: negative impact on the effect of escitalopram
